Measurements reported in ChEMBL document CHEMBL1921738, “A small molecule that preferentially binds the closed conformation of Hsp90” (Bioorg Med Chem Lett, 2011).
Calls of active or inactive are those of the source. The calls are words filed in the database; no cut-off is given here. Side chains are listed from the residue outwards. Peptide text beside a SMILES is read from it. * marks the point of attachment. Biotin = O=C1N[C@H]2[C@H](CS[C@H]2CCCCC(=O)*)N1; PEG4 = NCCOCCOCCOCCOCCC(=O)O

Assays:
[1] = Binding affinity to Saccharomyces cerevisiae Hsc82 open apo state by fluorescence polarization anisotropy method
[2] = Binding affinity to Saccharomyces cerevisiae Hsc82 closed state by fluorescence polarization anisotropy method in presence of non-hydrolyzable ATP analog AMPPNP
[3] = target: T1, Heat shock protein HSP 90-beta (Homo sapiens, UniProt P08238); test: Binding affinity to human Hsp90 closed state by fluorescence polarization anisotropy
[4] = test system: Jurkat; test: Cytotoxicity against human Jurkat T-lymphoblastoid leukemia cells after 24 to 48 hrs by MTS assay; format: cell-based
[5] = target: T1, Heat shock protein HSP 90-beta; test: Binding affinity to human Hsp90 open state by fluorescence polarization anisotropy
[6] = target: T1, Heat shock protein HSP 90-beta; test: Binding affinity to Hsp90 after 1 hrs by Western blotting

T1 sequence (P08238 whole entry): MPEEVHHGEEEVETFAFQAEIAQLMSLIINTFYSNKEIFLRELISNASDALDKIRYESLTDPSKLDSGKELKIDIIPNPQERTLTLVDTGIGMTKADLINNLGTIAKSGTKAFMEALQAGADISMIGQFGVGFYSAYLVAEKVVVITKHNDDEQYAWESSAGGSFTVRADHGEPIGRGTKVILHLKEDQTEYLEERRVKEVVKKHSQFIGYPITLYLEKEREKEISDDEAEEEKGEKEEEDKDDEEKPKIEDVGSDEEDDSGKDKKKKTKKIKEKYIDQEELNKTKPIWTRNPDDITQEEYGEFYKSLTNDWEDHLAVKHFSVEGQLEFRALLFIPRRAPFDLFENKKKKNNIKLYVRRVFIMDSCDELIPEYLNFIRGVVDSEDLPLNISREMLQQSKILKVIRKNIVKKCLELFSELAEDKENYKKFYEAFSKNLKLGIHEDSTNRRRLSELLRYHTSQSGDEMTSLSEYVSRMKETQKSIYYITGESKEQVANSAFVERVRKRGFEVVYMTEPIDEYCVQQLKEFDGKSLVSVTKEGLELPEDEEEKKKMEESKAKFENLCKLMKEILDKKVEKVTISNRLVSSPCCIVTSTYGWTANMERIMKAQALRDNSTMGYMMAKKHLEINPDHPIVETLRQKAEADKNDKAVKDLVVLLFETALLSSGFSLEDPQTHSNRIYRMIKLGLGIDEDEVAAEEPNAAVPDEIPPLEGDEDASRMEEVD

Kd [1]	Kd [2]	Compound	also measured
103 µM	55 µM	CC(C)[C@@H]1NC(=O)[C@H](CCCCNC(=O)c2ccc(C(=O)O)c(-c3c4ccc(=O)cc-4oc4cc(O)ccc34)c2)NC(=O)[C@H](CCCCNC(=O)OCc2ccccc2)NC(=O)[C@H](Cc2ccccc2)NC(=O)[C@@H](Cc2ccccc2)N(C)C1=O	–
–	–	CC(C)C[C@@H]1NC(=O)[C@H](Cc2ccccc2)NC(=O)[C@H](CC(C)C)NC(=O)[C@H](C(C)C)NC(=O)[C@H](CC(C)C)NC1=O (cyclo(FLLVL))	Kd [3]: 100 µM
–	–	CO[C@@H]1[C@@H](OC(N)=O)[C@@H](O)[C@H](Oc2ccc3c(O)c(NC(=O)c4ccc(O)c(CC=C(C)C)c4)c(=O)oc3c2C)OC1(C)C [NOVOBIOCIN]	Activity [4]: 700 µM
–	–	CC(C)C[C@@H]1NC(=O)[C@H](CCCCNC(=O)OCc2ccccc2)NC(=O)[C@H](Cc2ccccc2)NC(=O)[C@@H](Cc2ccccc2)N(C)C(=O)[C@H](C(C)C)NC1=O	Activity [5]: Active; Activity [3]: Active
–	–	CC(C)C[C@@H]1NC(=O)[C@H](Cc2ccccc2)NC(=O)[C@H](CC(C)C)NC(=O)[C@H](C(C)C)NC(=O)[C@H](CCCCNC(=O)CCOCCOCCOCCOCCNC(=O)CCCC[C@@H]2SC[C@@H]3NC(=O)N[C@@H]32)NC1=O (cyclo(FLK([PEG4-Biotin])VL))	Kd [6]: 20 µM
57 µM	27 µM	CC(C)C[C@@H]1NC(=O)[C@H](CCCCNC(=O)OCc2ccccc2)NC(=O)[C@H](Cc2ccccc2)NC(=O)[C@@H](Cc2ccccc2)N(C)C(=O)[C@H](CCCCNC(=O)c2ccc(C(=O)O)c(-c3c4ccc(=O)cc-4oc4cc(O)ccc34)c2)NC1=O	–
180 µM	120 µM	CC(C)C[C@@H]1NC(=O)[C@H](CCCCNC(=O)OCc2ccccc2)NC(=O)[C@H](CCCCNC(=O)c2ccc(C(=O)O)c(-c3c4ccc(=O)cc-4oc4cc(O)ccc34)c2)NC(=O)[C@@H](Cc2ccccc2)N(C)C(=O)[C@H](C(C)C)NC1=O	–
